Test results reported in publication PMC6337631, “Effective Tetradentate Compound Complexes against Leishmania spp. that Act on Critical Enzymatic Pathways of These Parasites” (Molecules, 2018).
Read-outs that look alike come from different tables or passages of the source.

How the values were obtained:
[1] = tested on: Leishmania donovani promastigote forms; test: Promastigote test (extracellular forms), L. donovani; assay type: cell-based; conditions: 72 h, 100 µM to 1 µM, mean ± SD
Experimental: (§1) Promastigote forms of three different Leishmania spp., L. donovani (MHOM/PE/84/LC26), L. infantum (MCAN/ES/2001/UCM-10) and L. braziliensis (MHOM/BR/1975/M2904), were cultured in vitro in Medium Trypanosomes Liquid (MTL) supplemented with 10% inactivated foetal calf serum (FCS) in an air atmosphere at 28 °C, in Roux flasks (Corning, Manassas, VA, USA) with a surface area of 75 cm^2, according to [33].
(§2) The compounds and the reference drug Glu were dissolved in DMSO (Panreac, Barcelona, Spain) and tested from 100 µM to 1 µM with 0.1% (v/v) DMSO final concentration in plates. Therefore, controls were prepared including 0.1% (v/v) of this component, as previously described.
(§3) Promastigote forms were collected in the exponential growth phase and seeded at 1 × 10^5 parasites/mL in 24-well microplates (Nunc, Naperville, IL, USA), after adding each compound at concentrations from 100 µM to 1 µM and cultured in 500 μL/well volumes at 28 °C. After 72 h incubation, the leishmanicidal activity was assessed using a Neubauer haemocytometric chamber in comparison with the control cultures. […] Each drug concentration was tested in triplicate in four separate determinations.

[2] = tested on: Leishmania donovani amastigote forms; test: Amastigote test (intracellular forms in J774.2 macrophages), L. donovani; assay type: cell-based; conditions: 72 h, mean ± SD
Experimental: as §1, §2
(§4) J774.2 macrophages were grown and seeded at a density of 1 × 10^4 cells/well in 24-well microplates (Nunc) with rounded coverslips on the bottom and cultured for 48 h in humidified 95% air, 5% CO2 atmosphere at 37 °C in Minimal Essential Medium (MEM) with 2 mM glutamine and 20% (v/v) inactivated FCS. Adherent macrophages were infected with metacyclic promastigotes in the stationary growth phase of L. donovani, L. infantum and L. braziliensis at a multiplicity of infection (MOI) ratio of 1:10 and maintained for 24 h. Non-phagocytosed parasites were removed by washing, and after addition of the testing compounds at concentrations from 100 µM to 1 µM, cultured in 500 μL/well volumes. Control cultures were also included. After 72 h incubation, leishmanicidal activity was assessed based on the number of amastigotes in treated and untreated cultures in methanol-fixed and Giemsa-stained preparations by analyzing 500 host cells distributed in randomly chosen microscopic fields. The leishmanicidal effect was calculated as described to determine the leishmanicidal activity in the promastigote forms. Each drug concentration was tested in triplicate in four separate determinations.

[3] = tested on: Leishmania infantum promastigote forms; test: Promastigote test (extracellular forms), L. infantum; assay type: cell-based; conditions: 72 h, 100 µM to 1 µM, mean ± SD of four determinations
Experimental: as §1, §2, §3

[4] = tested on: Leishmania braziliensis amastigote forms; test: Amastigote test (intracellular forms in J774.2 macrophages), L. braziliensis; assay type: cell-based; conditions: 72 h, mean ± SD
Experimental: as §1, §2, §4

[5] = tested on: Leishmania braziliensis promastigote forms; test: Promastigote test (extracellular forms), L. braziliensis; assay type: cell-based; conditions: 72 h, 100 µM to 1 µM, mean ± SD
Experimental: as §1, §2, §3

[6] = tested on: J774.2 murine macrophages; test: Cytotoxicity test on macrophages by flow cytometry; assay type: cell-based, mouse; conditions: J774.2 macrophages, 72 h, read-out: Toxicity IC50 Macrophage
Experimental: as §2
The macrophage line J774.2 [European collection of cell cultures (ECACC) number 91051511] was derived in 1968 from a tumour in a female BALB/c mouse. Macrophages were grown in humidified 95% air, 5% CO2 atmosphere at 37 °C in Minimal Essential Medium (MEM) with 2 mM glutamine and 20% (v/v) inactivated FCS. The cytotoxicity test on macrophages was performed by Flow cytometry analysis according to a method previously described. Briefly, cells were seeded at a density of 5 × 10^4 cells/well in 24-well microplates (Nunc, Naperville, IL, USA). After 48 h incubation, the medium was removed, and fresh medium was added together with each test compound at concentrations from 100 µM to 1 µM and cultured in 500 μL/well volumes for 72 h. Thereafter, cells were recovered by centrifugation, and cell viability was determined by Flow cytometry (FACS Vantage flow cytometer, Becton Dickinson, San Jose, CA, USA) after incubating the cells with propidium iodide ([…]) and fluorescein diacetate (100 ng/mL). The percentage of viability was calculated in comparison with the control cultures. […] Each drug concentration was tested in triplicate in four separate determinations.

[7] = tested on: Leishmania infantum amastigote forms; test: Amastigote test (intracellular forms in J774.2 macrophages), L. infantum; assay type: cell-based; conditions: 72 h, mean ± SD
Experimental: as §1, §2, §4

[8] = tested on: L. infantum promastigotes; test: Metabolite excretion by 1H-NMR, L. infantum; assay type: cell-based, Leishmania infantum; conditions: IC25 concentration, 72 h, vs untreated
Experimental: Trypanosomatids catabolizes glucose at a high rate, excreting into the medium partly oxidized end products such as acetate, succinate, L-alanine or L-lactate.
Cultures of L. donovani, L. infantum and L. braziliensis promastigotes were seeded in culture flaks at 5 × 10^5 cells/mL, and after the addition of the compounds at IC25 concentrations at 28 °C. Control cultures were also included. After 72 h of incubation, parasites were centrifuged at 400 × g for 10 min, and supernatants were collected in order to determine the excreted metabolites by ^1H-NMR. Chemical shifts were expressed in parts per million (ppm) using sodium 2,2-dimethyl-2-silapentane-5-sulphonate as the reference signal. The One-dimensional ^1H-NMR spectra were acquired with a VARIAN DIRECT DRIVE 400 MHz Bruker spectrometer (Rheinstetten, Germany) with an AutoX probe using D2O as solvent. The chemical shifts used to identify the respective metabolites were consistent with those described previously by some of the authors. The spectral region of 1.0–5.5 ppm was bucketed into a frequency window of 0.1 ppm. The peak (2.6 ppm) corresponding to DMSO was removed before binning, and the regions corresponding to water (4.5–5.5 ppm) and glucose (3.4–3.8 ppm) were excluded during binning to avoid artefacts due to pre-saturation. […]

[9] = tested on: L. braziliensis promastigotes; test: Ultrastructural alterations by TEM, L. braziliensis; assay type: cell-based, Leishmania braziliensis; conditions: 72 h at IC25 concentration
Experimental: (§5) Parasites were cultured at a density of 5 × 10^5 cells/mL with medium containing the tested compounds at IC25 concentrations. After 72 h at 28 °C, the cultures were processed using a technique previously described and analysed by TEM (LIBRA 120 PLUS, Zeiss, Barcelona, Spain).

human CuZn-SOD = target: T1, human CuZn-SOD (Homo sapiens, UniProt P00441); test: SOD inhibition assay, human CuZn-SOD; assay type: biochemical; conditions: assayed 100 µM to 0.1 µM; non-linear regression
T1 construct: purchased Sigma Chemical Co. (St. Louis, MO, USA)
T1 sequence (P00441 whole entry): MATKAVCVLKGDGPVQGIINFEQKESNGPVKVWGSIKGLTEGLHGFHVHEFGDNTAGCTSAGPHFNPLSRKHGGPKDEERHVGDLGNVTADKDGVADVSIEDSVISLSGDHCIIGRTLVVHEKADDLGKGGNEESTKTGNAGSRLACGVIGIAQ
Experimental: The previous extraordinary results prompted us to evaluate the inhibitory effect of 3, 5–8 and 10 on the SOD activity. […]
(§6) Parasite cells were collected in the exponential growth phase by centrifugation (400g for 10 min). The pellet obtained after centrifugation was lysated by sonication, processed according to [38] and obtained the homogenate fraction which contained the parasite Fe-SOD. The protein content was quantified using the Sigma Bradford test, which uses BSA as a standard (no trace ability was certified for the BSA standard). Superoxide dismutase activities were determined using a method previously described, which measures the reduction in nitrobluetetrazolium (NBT) by superoxide ions. Human CuZn-SOD. Substrates used in these assays were obtained from Sigma Chemical Co. (St. Louis, MO, USA). Resulting data were analysed using the Newman−Keuls test.

parasitic Fe-SOD = test: SOD inhibition assay, parasitic Fe-SOD of the Leishmania spp. taken together; assay type: biochemical
Experimental: The previous extraordinary results prompted us to evaluate the inhibitory effect of 3, 5–8 and 10 on the SOD activity. […] We used promastigotes of Leishmania spp. to obtain Fe-SOD by cellular disruption and precipitation and assayed the compounds at concentrations ranging from 100 µM to 0.1 µM in each case.
as §6

[10] = tested on: L. infantum promastigotes; test: Ultrastructural alterations by TEM, L. infantum; assay type: cell-based, Leishmania infantum; conditions: 72 h at IC25 concentration
Experimental: as §5

[11] = tested on: Leishmania infantum infection of J774.2 macrophages; test: Infectivity assay, L. infantum; assay type: cell-based; conditions: IC25 concentration; 10-day infectivity assay
Experimental: (§7) After the initial in vitro studies we were interested in finding out if the six most leishmanicidal compounds could also prevent the infection of host cells. For this reason, we conducted an assay in which the J774.2 macrophages were exposed to the metacyclic promastigotes and the compound at IC25 concentration at the same time. The propagation of the parasitic infection was determined by measuring the infection rate and the average number of amastigotes per macrophage cell present during the 10-day treatment period. In addition, the endocytic (short-time of infection) and infection (long-time of infection) indexes were calculated.
(§8) Adherent macrophages were grown, seeded and infected with metacyclic promastigotes as mentioned above. The compounds at IC25 concentrations (calculated using linear regression analysis from the Kc values of the concentrations employed) were added immediately after infection and incubation was performed for 12 h at 37 °C in humidified 95% air, 5% CO2 atmosphere. in humidified 95% air, 5% CO2 atmosphere at 37 °C Non-phagocytosed parasites and drugs were removed by washing, and then the infected cultures were grown for 10 days, adding fresh culture medium every 48 h, according to [35]. Amastigotes per macrophage count was determined in methanol-fixed and Giemsa-stained preparations as mentioned above every 48 h. […]

[12] = tested on: L. donovani promastigotes; test: Ultrastructural alterations by TEM, L. donovani; assay type: cell-based, Leishmania donovani; conditions: 72 h at IC25 concentration
Experimental: as §5

[13] = tested on: Leishmania braziliensis infection of J774.2 macrophages; test: Infectivity assay, L. braziliensis; assay type: cell-based; conditions: IC25 concentration; last day of the experiment (day 10)
Experimental: as §7, §8

Row | Compound | IC50 [1] | IC50 [2] | IC50 [3] | IC50 [4] | IC50 [5] | IC50 [6] | IC50 [7] | ultrastructural alterations of L. braziliensis promastigotes (TEM) [9] | IC50 (human CuZn-SOD) | ultrastructural alterations of L. infantum promastigotes (TEM) [10] | IC50 ([1]; Leishmania donovani) | IC50 ([2]; Leishmania donovani) | IC50 ([3]; Leishmania infantum) | IC50 ([4]; Leishmania braziliensis) | IC50 ([5]; Leishmania braziliensis) | IC50 ([6]; Mus musculus) | IC50 ([7]; Leishmania infantum) | other results
1 | CN1CCN(C)CCN(Cc2ccccn2)CC1.O=S(=O)([O-])C(F)(F)F.O=S(=O)([O-])C(F)(F)F.[Fe+2] [Compound 1] | 28.6 ± 5.8 µM | 12.5 ± 2.7 µM | 18.5 ± 1.6 µM | 21.3 ± 0.9 µM | 22.3 ± 0.6 µM | 37.9 ± 4.2 µM | 20.5 ± 1.8 µM |  |  |  |  |  |  |  |  |  |  | 
2 | CN1CCN(C)CCN(Cc2ccccn2)CC1.O=S(=O)([O-])C(F)(F)F.O=S(=O)([O-])C(F)(F)F.[Mn+2] [Compound 3] | 28.6 ± 3.5 µM | 11.7 ± 1.3 µM | 8.5 ± 0.4 µM | 8.7 ± 0.6 µM | 9.3 ± 0.3 µM | 98.5 ± 6.3 µM | 3.7 ± 1.6 µM | completely swollen, round and full of empty or lipid vacuoles | > 100 µM | induced agglutination in the parasites |  |  |  |  |  |  |  | Excretion variation ACETATE, L. infantum [8]: 18%; Excretion variation SUCCINATE, L. infantum [8]: 32%; IC50 (parasitic Fe-SOD): > 100 µM
3 | CN(Cc1ccccn1)C1CCCCC1N(C)Cc1ccccn1 (stereo not drawn) [Compound 8] |  |  |  |  |  |  |  | round and lacked in ribosomes | > 250 µM | most destructive compounds | 31.7 ± 2.4 µM | 1.9 ± 0.3 µM | 83 ± 9.9 µM | 21.7 ± 1.4 µM | 73.8 ± 3.6 µM | 268 ± 16.2 µM | 22.5 ± 3.1 µM | day at which the decline in the infection rate appeared, L. infantum [11]: 0.5 days; ultrastructural alterations of L. donovani promastigotes (TEM) [12]: expanded and disperse Golgi apparatus
4 | CN1CCN(C)CCN(Cc2ccccn2)CC1 [Compound 9] |  |  |  |  |  |  |  |  |  |  | 29.5 ± 3.6 µM | 14.5 ± 2.7 µM | 71.7 ± 10 µM | 30.7 ± 2.5 µM | 53.2 ± 3.6 µM | 100 ± 4.8 µM | 33.4 ± 3.2 µM | 
5 | c1ccc(CN2CCN(Cc3ccccn3)CCN(Cc3ccccn3)CC2)nc1 [Compound 10] |  |  |  |  |  |  |  | shrunken or dehydrated | > 300 µM | most destructive compounds | 18.6 ± 0.9 µM | 11.6 ± 3.3 µM | 2.6 ± 0.7 µM | 11.9 ± 0.8 µM | 5.5 ± 0.8 µM | 126 ± 7.1 µM | 10.4 ± 0.1 µM | ultrastructural alterations of L. donovani promastigotes (TEM) [12]: most lethal end result
6 | CN1CCN(C)CCN(CCN2CCN(C)CCN(C)CC2)CC1 [Compound 11, TACN2] |  |  |  |  |  |  |  |  |  |  | 29.5 ± 4.1 µM | 19.8 ± 2.6 µM | 87.5 ± 5.1 µM | 30.4 ± 1.3 µM | 60.6 ± 3.8 µM | 75.1 ± 4.7 µM | 34.6 ± 2.5 µM | 
7 | [Fe^II2(TACN2)(CH3CN)6](ClO4)4 [Compound 2] | 19.7 ± 1.7 µM | 16.3 ± 2.5 µM | 52.6 ± 3.1 µM | 12.5 ± 1.5 µM | 37.2 ± 1.9 µM | 106 ± 8.8 µM | 57.5 ± 2.6 µM |  |  |  |  |  |  |  |  |  |  | 
8 | meglumine antimoniate [Glucantime, reference compound] | 27.3 ± 4.3 µM | 33.3 ± 3.7 µM | 18 ± 3.1 µM | 30.4 ± 6.1 µM | 25.6 ± 1.6 µM | 15.2 ± 1.3 µM | 24.2 ± 2.6 µM |  |  |  |  |  |  |  |  |  |  | percentage of decrease in infection rate in comparison to the control, L. braziliensis [13]: 36%
